The values below come from patent US12023334B2, “Composition including rilpivirine and method for treating tumors or cancer” (APTORUM THERAPEUTICS LIMITED, priority 2019, dated 2024).

The test system of one test is DOHH-2. Briefly: EC50 in cancer cell line, rilpivirine alone. The class given is cell-based. The note with it: Homo sapiens, B-cell lymphoma.
The subject of another test is IMR-32 cell line. As to the kind of experiment: MTT cell proliferation assay, IMR-32. The class given is cell-based, human. The protocol:
In the present invention, the IC50 concentrations required to inhibit the activity of IMR-32 cell line and other neuroblastoma cell lines were determined for rilpivirine and other chemotherapeutic agents, and presented on the two-coordinate plot with x- and y-axes, forming the two points (IC50, rilpivirine, 0) and (0, IC50, chemotherapeutic agents). […] Moreover, the concentration or ratios of rilpivirine in combination with chemotherapeutic agents which provide the same inhibition effect are denoted as point (Crilpivirine, 50, Cchemotherapeutic agents, 50) in the same plot.
The combination index provides a quantitative measurement of the drug-drug interaction at the given effect level. The combination index (CI) is calculated by following equation: […]
The IMR-32, SK-N-SH, SH-SY5Y and SK-N-BE(2) tumor cell lines were purchased from American Type Culture Collection (ATCC, Manassas, VA). […] The cells were incubated for 72 hours and then cell proliferation was measured by 3-(4,5-dimethyl-2-thiazolyl)-2,5-diphenyl-2H-tetrazolium bromide (MTT) colorimetric assays (Sigma-Aldrich, Inc., St. Louis, MO). […] Absorbance of each well was measured with a spectrophotometer (uQuant SpectroMAX Gemini Dual-scanning microplate spectro, Bio-tek Instrument Inc.) at 550 nm. Growth inhibition was expressed as the ratio of the mean absorbance of treated cells relative to that of the control.
A general note: Formazan colour is commonly taken as a measure of viable cells.

For a further test, the system named is DMS273. As to the kind of experiment: EC50 in cancer cell line, rilpivirine alone. The class given is cell-based. To be noted: Homo sapiens, DMS-273, SCLC.
A further test has as its system MES-SA. Briefly: EC50 in cancer cell line, rilpivirine alone. The class given is cell-based. The note with it: Homo sapiens, Uterine sarcoma.
The next test concerns BV-173. As to the kind of experiment: EC50 in cancer cell line, rilpivirine alone. The class given is cell-based. To be noted: Homo sapiens, B-cell precursor leukemia (CML).
The test system of another test is IMR-32 tumor. Briefly: Xenograft mouse model of neuroblastoma, tumor volume. The class given is in vivo, female BALB/c nude mice. The note with it: rilpivirine 400 mg/kg once daily for 21 consecutive days, oral; p<0.05. The protocol: This study employed female BALB/c nude mice, aged 4-5 weeks, obtained from BioLasco Taiwan (under Charles River Laboratories Licensee). The animals were housed in individually ventilated cages (IVC, 36 Mini Isolator system). The allocation for 4 animals was 27×20×14 in cm. All the animals were maintained in a hygienic environment under controlled temperature (20-24° C.) and humidity (30%-70%) with 12-hour light/dark cycle. Free access to standard lab diet [MFG (Oriental Yeast Co., Ltd., Japan)] and autoclaved tap water were granted. All aspects of this work including housing, experimentation, and animal disposal were performed in general accordance with the “Guide for the Care and Use of Laboratory Animals: Eighth Edition” (National Academies Press, Washington, D.C., 2011) in our AAALAC-accredited laboratory animal facility. In addition, the animal care and use protocol was reviewed and approved by the IACUC at Pharmacology Discovery Services, Taiwan.
The IMR-32 tumor cell line was purchased from American Type Culture Collection (ATCC CCL-127, neuroblastoma) and cultured in Pharmacology Discovery Services, Taiwan. The cells were cultured in MEM medium containing 10% fetal bovine serum (FBS), 1 mM sodium pyruvate and 1 mM NEAA at 37° C. in 5% CO2 incubator. […] The tumor volume, body weight, mortality, and signs of overt toxicity were monitored and recorded twice weekly for 28 days. […]

In another test the test system is SU-DHL-4. Briefly: EC50 in cancer cell line, rilpivirine alone. It is filed as cell-based. The note with it: Homo sapiens, B-cell non-Hodgkin lymphoma.
For a further test, the system named is SK-N-AS. As to the kind of experiment: EC50 in cancer cell line, rilpivirine alone. It is filed as cell-based. To be noted: Homo sapiens, Neuroblastoma.
For a further test, the system named is BxPC-3. Briefly: EC50 in cancer cell line, rilpivirine alone. It is filed as cell-based. To be noted: Homo sapiens, Pancreas.
The next test deals with JVM-2. As to the kind of experiment: EC50 in cancer cell line, rilpivirine alone. To be noted: Homo sapiens, Mantle cell lymphoma. It is filed as cell-based.
In the next test the test system is Thp1. Briefly: EC50 in cancer cell line, rilpivirine alone. It is filed as cell-based. The note with it: Homo sapiens, THP-1, Acute monocytic leukemia.
The test system of the next test is EM-2. Briefly: EC50 in cancer cell line, rilpivirine alone. To be noted: Homo sapiens, Chronic myelogenous leukemia. The class given is cell-based.
The next test concerns pancreatic cancer cells. To be noted: in vitro (PloS ONE 10(6):e0130277, 2015); cited from earlier work.
For a further test, the system named is ST486. Briefly: EC50 in cancer cell line, rilpivirine alone. The class given is cell-based. The note with it: Homo sapiens, Burkitt's lymphoma.

The term pEC50 denotes the EC50 on a negative log10 scale, so that one unit is a factor of ten. Lower therefore signals a large EC50. For orientation: pIC50 means the negative decadic logarithm of the IC50, by convention in mol/L.

Each structure is given as a SMILES string. pEC50, pIC50: −log10 of the molar value.

For the molecule `Cc1cc(/C=C/C#N)cc(C)c1Nc1ccnc(Nc2ccc(C#N)cc2)n1` [rilpivirine], the pEC50 is 5.35 with DOHH-2; 5.30 in the test on DMS273; 5.31 with MES-SA; 5.43 in the test with BV-173; 5.37 in the test on SU-DHL-4; 5.32 with SK-N-AS. Besides, the negative-log EC50 (pEC50) is 4.95 in the test with BxPC-3; 5.56 with JVM-2; 5.37 in the test with Thp1; 5.40 with EM-2; 5.42 in the test on ST486. Besides, in the test on IMR-32 cell line (5 μM rilpivirine treatment for 24 hours), the “growth of neuroblastoma cell line IMR-32” value is reported as “significantly inhibited”. The pIC50 with IMR-32 cell line (Homo sapiens, IMR-32, rilpivirine alone, 72 hours) was 5.53. For the same molecule, the “tumor growth compared to negative control group (vehicle)” value in the test with IMR-32 tumor was “significantly inhibited”. Besides, the “toxic potential against pancreatic cancer cells” value in the test with pancreatic cancer cells is “high toxic potential”.
